Reference: US9662404B2, “Compositions and methods for the delivery of molecules into live cells” (The Texas A&M University System, priority 2013, dated 2017)
Ends that are not written are not given here.

Columns and labels:
[1] = target: EGFP (Aequorea victoria, UniProt P42212, F64L/H231L/S65T); conditions: EGFP 1 μM, dTAT 5 μM, excitation 488 nm
Protocol: Fluorescence emission spectra were obtained using an SLM-8000C fluorometer upgraded with the phoenix package (ISS, Champaign, Ill.) and Vinci v.1.6 PC software (ISS). The experiments were conducted using a quartz cuvette at room temperature. The samples were excited at 488 nm (slit width=1 mm) and the fluorescence emission was scanned from 500 to 650 nm (slit width=1 mm). All samples (EGFP (1 μM) and dTAT (5 μM)) were prepared using nrL-15.

[2] = tested on: neuronal cell line Neuro-2a and primary human dermal fibroblasts (HDF); assay: Cellular localization of dTAT in neuronal and primary cells; assay type: cell-based; conditions: 1 h incubation
Protocol: FIG. 11 illustrates the cellular localization of dTAT after 1 h incubation with neuronal cell line Neuro-2a (left panel) and primary human dermal fibroblasts (HDF) (right panel). Cells were incubated with dTAT, washed, and imaged with a 100× objective. […] FIG. 12 graphically illustrates the proliferation rate (absorbance in an MTT assay) of treated and untreated HeLa, Neuro-2a, and HDF cells.

[3] = tested on: cells; assay: Whole-genome microarray analysis after dTAT treatment; assay type: cell-based; conditions: 5 μM, 1 h; analysis immediately, 1 h or 24 h after treatment
Protocol: To better determine the effect of dTAT exposure on a cell, a whole-genome microarray analysis was performed on cells treated with 5 μM dTAT for 1 h to determine whether transcriptional patterns are influenced. Analysis was performed immediately, 1 h, or 24 h after dTAT treatment. […] The straight lines represent 2-fold intensity change cut-offs.

[4] = tested on: HeLa cells; assay: Delivery of peptides inside live cells, internalization assessed by fluorescence microscopy; assay type: cell-based; conditions: for cellular localization of peptide fluorescence: 1 h incubation
Protocol: The TAT, dTAT and acTAT peptides were incubated for 1 h with several cell lines and internalization was assessed by fluorescence microscopy. […] See also FIG. 5. […] The cell lines HeLa, NIH 3T3, COLO 316 and HaCaT were incubated with 5 μM dTAT for 1 h, washed and imaged. […] After imaging, cells were incubated at 37° C. in a humidified atmosphere containing 5% CO2 for 24 h, washed and imaged again. […] Cell viability was assessed by exclusion of the cell-impermeable nuclear stain SYTOX® Blue at both 1 h and 24 h time point. […] Inverted monochrome (black=fluorescence signal, white-no signal) fluorescence images were made of HeLa cells incubated with 10 or 20 μM of TAT for 1 h.
Live cells from different lines (HeLa, HaCat, NIH 3T3) were grown in Dulbecco's […] (DMEM) (Fisher) supplemented with 10% fetal bovine serum (FBS) (Fisher) and kept at 37° C. in a humidified atmosphere containing 5% CO2. Cells were then seeded in 8-well dishes so that the cells were 80%-90% confluent after 48 h. […] The media (nrL-15) used for incubation lacks cysteine to avoid reduction of the disulfide bond of dTAT. Cells were then incubated with different concentrations of the acTAT, TAT, or dTAT at 37° C. for 1 h. […] Images were collected using a Rolera-MGI Plus back-illuminated EMCCD camera (Qimaging, Surrey, BC, Canada). Images were acquired using bright field imaging and three standard fluorescence filter sets: CFP (Ex=436±10 nm/Em=480±20 nm), RFP (Ex=560±20 nm/Em=630±35 nm), and FITC (Ex=488±10 nm/Em=520±20 nm). The fluorescence intensities of different cells were measured with the SlideBook 4.2 software (Olympus, Center Valley, Pa.) and the average fluorescence intensity was determined for each condition. It has been previously reported that CPPs labeled with fluorophores such as TMR can photosensitize membranes and cause endosomal leakage upon light irradiation. See, Srinivasan, D. et al., “Conjugation to the cell-penetrating peptide TAT potentiates the photodynamic effect of carboxytetramethylrhodamine,” PloS one 6:e17732 (2011) and Muthukrishnan, N., et al., “Synergy Between Cell-Penetrating Peptides and Singlet Oxygen Generators Leads to Efficient Photolysis of Membranes,” Photochemistry and Photobiology 89:625-630 (2012), each incorporated herein by reference in its entirety. […] First, all delivery experiments were performed under conditions of minimal light irradiation (dark room with dim red light). When fluorescence imaging is required, probes (e.g., SNAP surface 488, EGFP) are imaged before dTAT is, thereby minimizing the possible effect of light on endosomal release. For experiments performed with Cre and Hoxb4, cells are not imaged and not exposed to light (not at all for Hoxb4, 12 h after incubation for Cre).

“(CK(TMR)TAT)2 (CK(TMR)RKKRRQRRRG; also: dimer) [dTAT, dimer of two CK(TMR)-TAT monomers linked via a disulfide bond between the N-terminal cysteine residues]” was tested, and the “binding to EGFP” value [1] was “does not bind to EGFP”, the “cellular localization of fluorescence” value [2] was “cytosolic release” and the “transcriptional response on a whole-genome scale” value [3] was “minimal transcriptional perturbations”. For the same substance, the “cells in which cytosolic delivery is observed” value ([4]; 5 μM) was “more than 95%”, the “concentration range with dramatic increase in cytosolic delivery of the peptide” value ([4]; HeLa cells, dTAT 1-5 μM) was 2 to 5 µM and the “cellular localization of peptide fluorescence” value ([4]; above 5 μM) was “distributed in the cytosol and nucleus”. The “cellular localization of peptide fluorescence” value ([4]; below 2 μM) was “punctate”.
